Calls of active or inactive are those of the source.
How the values were obtained:
[1] = Glucagon-like peptide 1 release potency, NCI-H716 cell line, dose-response, half-maximal inhibitory concentration (AID 1117344); format: functional, cell-based
[2] = half-maximal inhibitory concentration for glucagon-like peptide-1 release, STC-1 cell line, dose-response (AID 1117345); format: functional, cell-based
[3] = molecular target: RNA-editing ligase 1, mitochondrial (Trypanosoma brucei brucei, UniProt P86926); assay: TbREL1 ligase inhibitors, dose response, biochemical, fluorescence, Trypanosoma brucei (AID 1117295); format: functional
[4] = A549 cell cytotoxicity, dose response, cytotoxicity control, 24 h, CellTiter-Glo luminescence, cherry-picks (AID 1053115); format: functional, cell-based; settings: A549, 24 h
[5] = M. tuberculosis growth inhibition, HTS (AID 449762); format: functional
[6] = molecular target: Mitogen-activated protein kinase 10 (Homo sapiens, UniProt P53779); assay: Dose response biochemical screening assay for inhibitors of c-Jun N-Terminal Kinase 3 (JNK3). [Related pubchem assays: 746 ]
[7] = molecular target: T1, Oxysterols receptor LXR-beta (Homo sapiens, UniProt P55055); assay: LXR agonists, Gal4 luciferase reporter, dose response, counter-screen for ssDAF-12 agonist project, cell-based, luminescence, HEK293, S. stercoralis campaign (AID 720737); format: functional; settings: read-out: IC50 (the source's name)
T1 sequence (P55055 whole entry): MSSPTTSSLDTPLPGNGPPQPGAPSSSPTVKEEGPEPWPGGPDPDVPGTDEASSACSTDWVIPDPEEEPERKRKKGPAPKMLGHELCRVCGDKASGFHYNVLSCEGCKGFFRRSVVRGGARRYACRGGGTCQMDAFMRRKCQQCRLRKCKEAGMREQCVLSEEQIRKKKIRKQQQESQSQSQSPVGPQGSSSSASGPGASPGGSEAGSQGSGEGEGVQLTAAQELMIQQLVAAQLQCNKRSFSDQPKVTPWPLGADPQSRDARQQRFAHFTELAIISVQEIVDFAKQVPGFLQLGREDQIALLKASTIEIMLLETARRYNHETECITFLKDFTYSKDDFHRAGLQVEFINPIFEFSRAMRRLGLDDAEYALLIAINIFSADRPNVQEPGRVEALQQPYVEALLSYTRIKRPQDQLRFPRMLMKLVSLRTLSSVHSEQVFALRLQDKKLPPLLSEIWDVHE

[8] = Luminescence-based cell-based high throughput dose response assay to identify activators of the DAF-12 from the parasite S. stercoralis (ssDAF-12).; format: functional
[9] = P. falciparum Dd2 growth inhibitors, dose response, SYBR Green, dry powder samples, set 9 (AID 1159568); format: functional, cell-based
[10] = Mtb BioA inhibitors by displacement, dose response, biochemical, coupled fluorescence displacement, 20-point, dry powder (AID 743357); format: functional

Chain of Mitogen-activated protein kinase 10 (P53779 whole entry, the tested form may be a part): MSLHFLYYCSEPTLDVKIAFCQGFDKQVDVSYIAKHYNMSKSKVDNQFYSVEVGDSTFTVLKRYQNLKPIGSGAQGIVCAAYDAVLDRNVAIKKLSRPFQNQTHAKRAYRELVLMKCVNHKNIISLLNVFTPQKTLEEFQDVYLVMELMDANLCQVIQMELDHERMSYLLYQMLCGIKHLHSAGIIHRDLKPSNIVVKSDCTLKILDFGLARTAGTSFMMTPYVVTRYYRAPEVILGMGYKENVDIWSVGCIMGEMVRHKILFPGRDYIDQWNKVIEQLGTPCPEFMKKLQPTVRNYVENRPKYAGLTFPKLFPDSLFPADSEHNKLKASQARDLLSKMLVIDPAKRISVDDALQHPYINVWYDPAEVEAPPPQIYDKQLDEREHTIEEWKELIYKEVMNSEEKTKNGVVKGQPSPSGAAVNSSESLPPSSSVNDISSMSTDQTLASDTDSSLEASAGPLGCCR
Chain of RNA-editing ligase 1, mitochondrial (P86926 whole entry): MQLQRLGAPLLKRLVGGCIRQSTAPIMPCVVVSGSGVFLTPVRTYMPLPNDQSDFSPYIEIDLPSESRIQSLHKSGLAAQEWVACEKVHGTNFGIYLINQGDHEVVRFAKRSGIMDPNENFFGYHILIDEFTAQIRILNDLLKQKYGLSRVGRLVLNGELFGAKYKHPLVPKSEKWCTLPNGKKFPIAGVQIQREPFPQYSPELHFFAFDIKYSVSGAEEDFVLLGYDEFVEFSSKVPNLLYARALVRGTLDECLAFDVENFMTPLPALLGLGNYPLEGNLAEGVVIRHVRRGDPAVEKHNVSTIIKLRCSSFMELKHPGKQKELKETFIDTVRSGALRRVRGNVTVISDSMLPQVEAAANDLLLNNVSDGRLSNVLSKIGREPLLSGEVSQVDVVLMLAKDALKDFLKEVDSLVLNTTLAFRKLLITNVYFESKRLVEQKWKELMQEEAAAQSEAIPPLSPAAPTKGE

O=C(Nc1cccc2c(=O)cc(-c3nnn[nH]3)oc12)c1ccc(OCCCCc2ccccc2)cc1
IC50 [1]: > 40 µM (inactive) | IC50 [2]: > 40 µM (inactive)

O=C(O)c1ccnc(C(=O)O)c1
IC50 [3]: > 96.6 µM (inactive)

OC[C@@H]1Nc2ccc(-c3ccccc3)cc2[C@@H]2[C@H]1CCN2Cc1ccc(F)cc1
AC50 [4]: > 60 µM (inactive)

C/C(CC(=O)Nc1ccc(C)c(Cl)c1)=N\NC(=O)Cc1cnc(N)s1
IC50 [5]: > 100 µM (active)

Cc1cccc(/N=C/c2c(O)[nH]c3ccccc23)n1
IC50 [6]: 41.7 µM (not active)

Oc1[nH]ncc1/C=N/c1ccc(Oc2ccccc2)cc1
EC50 [7]: > 67.5 µM (inactive) | IC50 [8]: > 67.5 µM (inactive)

O=C(Nc1ccccc1F)N1CCCCN2[C@H](CO)[C@@H](c3ccc(/C=C/c4ccccc4)cc3)[C@H]2C1
AC50 [9]: 1.72 µM (active)

N#Cc1ccc(N2CCN(C(=O)c3ccc4c(c3)OCO4)CC2)cc1
AC50 [10]: 16.8 µM (active)

From ChEMBL document CHEMBL1201862, “PubChem BioAssay data set” (2004)
